The source made the active and inactive calls. The calls are words filed in the database; no cut-off is given here.

The subject of one test is DU-145. The test can be described thus: Cytotoxicity against Homo sapiens (human) DU145 cells assessed as inhibition of cell survival after 96 hr by MTT assay. It is filed as functional, cell-based.
Another test deals with MES-SA. The test can be described thus: Cytotoxicity against Homo sapiens (human) MES-SA cells assessed as inhibition of cell survival after 96 hr by MTT assay. Type of test: functional, cell-based. (Tetrazolium assays rely on reduction of a dye to a coloured formazan, in cell work by metabolically active cells.)
Test [1] is described as follows: Cytotoxicity against Homo sapiens (human) MES-SA/Dx5 cells assessed as inhibition of cell survival after 96 hr by MTT assay. Type of test: functional, cell-based.
The subject of another test is MCF7. The test can be described thus: Cytotoxicity against Homo sapiens (human) MCF7 cells assessed as inhibition of cell survival after 96 hr by MTT assay. It is filed as functional, cell-based.
Test [2] can be described thus: Antioxidant activity measured after 3 min by ferric thiocyanate method. Type of test: functional.
A short description of test [3]: Cytotoxicity against Homo sapiens (human) H460 cells assessed as inhibition of cell survival after 96 hr by MTT assay. Type of test: functional, cell-based, NCI-H460.
Test [4] in a line: Antioxidant activity measured after 10 min by thiobarbituric acid method. It is filed as functional.
Setting [5] is: Homo sapiens, DU-145, 96 h, read-out: IC50.
[6] abbreviates: Homo sapiens, MES-SA, 96 h, read-out: IC50.
Where [7] appears, read: Homo sapiens, MES-SA/Dx5, 96 h, read-out: IC50.
The mark [8] stands for this setting: Homo sapiens, MCF7, 96 h, read-out: IC50.
Setting [9] is: Homo sapiens, NCI-H460, 96 h, read-out: IC50.

Usually IC50 stands for the concentration at which inhibition is half-maximal. For the compound `COc1cc2c(c(OC)c1C(Br)Br)C(=O)c1ccccc1C2=O`, the IC50 with DU-145 (setting [5]) stood at 28 µM; with MES-SA (setting [6]) it was 10 µM; in test [1] (setting [7]), 7 µM; in the test on MCF7 (setting [8]) it was 27 µM; in test [3] (setting [9]), 23 µM. In addition, in test [2], the result was inactive.
In the case of `COc1c(C=O)c(O)cc2c1C(=O)c1ccccc1C2=O` [DAMNACANTHAL], the half-maximal inhibitory concentration (IC50) is 26 µM in the test with DU-145 (setting [5]); “Not Active” with MES-SA (mes-sa); “Not Active” in test [1] (mes-sa/dx5); 11 µM in the test on MCF7 (setting [8]); 25 µM in test [3] (setting [9]). Further, the outcome in test [2] and in test [4] was Active.
For `CC(=O)Oc1cc2c(c(O)c1C)C(=O)c1ccccc1C2=O`, the 50% inhibitory concentration (IC50) is 37 µM with DU-145 (setting [5]); “Not Active” in the test with MES-SA (mes-sa); “Not Active” in test [1] (mes-sa/dx5); 56 µM in the test with MCF7 (setting [8]); 68 µM in test [3] (setting [9]). In addition, the outcome in test [2] was inactive.
`Cc1c(O)c(Br)c2c(c1O)C(=O)c1ccccc1C2=O`: the half-maximal inhibitory concentration (IC50) with DU-145 (setting [5]) is 31 µM; with MES-SA (setting [6]), 20 µM; in test [1] (setting [7]), 30 µM; with MCF7 (setting [8]), 28 µM; in test [3] (setting [9]), 19 µM. Further, the outcome in test [2] was inactive.
With `O=C1c2ccccc2C(=O)c2c(O)cc(Br)cc21`, the IC50 entry (in the test with DU-145 (du-145); with MES-SA (mes-sa); in test [1] (mes-sa/dx5); in the test on MCF7 (mcf7); in test [3] (nci-h460)) was “Not Active” each time. For the same compound, the outcome in test [2] was inactive.
For `O=Cc1c(O)cc2c(c1O)C(=O)c1ccccc1C2=O`, the IC50 in the test on DU-145 (setting [5]) was 42 µM; in the test on MES-SA (setting [6]) it was 18 µM; in test [1] (mes-sa/dx5), “Not Active”; with MCF7 (setting [8]), 36 µM; in test [3] (setting [9]), 40 µM. Besides, the result in test [2] and in test [4] was Active.
Take `Cc1ccc(O)c2c1C(=O)c1ccccc1C2=O`: the IC50 result (in the test with DU-145 (du-145); in the test on MES-SA (mes-sa); in test [1] (mes-sa/dx5); with MCF7 (mcf7); in test [3] (nci-h460)) was “Not Active” throughout. Moreover, in test [2], the result was inactive.
On to `CCOCc1c(OC(C)=O)cc2c(c1OC)C(=O)c1ccccc1C2=O`, for which the IC50 in the test on DU-145 (setting [5]) was 23 µM; with MES-SA (mes-sa), “Not Active”; in test [1] (mes-sa/dx5), “Not Active”; in the test on MCF7 (setting [8]), 30 µM; in test [3] (nci-h460) it was “Not Active”. In test [2], the outcome was inactive.
As to `O=C1c2ccccc2C(=O)c2c(O)ccc(O)c21` [QUINIZARIN], the IC50 entry (in the test with DU-145 (du-145); with MES-SA (mes-sa); in test [1] (mes-sa/dx5); in the test on MCF7 (mcf7); in test [3] (nci-h460)) was “Not Active” throughout. Moreover, the result in test [2] was inactive.
On to `COc1ccc2c(c1)C(=O)c1ccccc1C2=O` [2-METHOXYANTHRAQUINONE], for which the concentration for half-maximal inhibition (IC50) was 70 µM in the test on DU-145 (setting [5]); “Not Active” with MES-SA (mes-sa); “Not Active” in test [1] (mes-sa/dx5); 68 µM with MCF7 (setting [8]); 68 µM in test [3] (setting [9]). In test [2], the result was inactive.
For `O=C1c2ccccc2C(=O)c2c(O)cccc21` [1-HYDROXYANTHRAQUINONE], the IC50 result (with DU-145 (du-145); with MES-SA (mes-sa); in test [1] (mes-sa/dx5); in the test on MCF7 (mcf7); in test [3] (nci-h460)) was “Not Active” throughout. Besides, the result in test [2] was inactive.
Consider `O=C1c2ccccc2C(=O)c2c(Br)ccc(O)c21`, for which the concentration for half-maximal inhibition (IC50) with DU-145 (setting [5]) is 27 µM; in the test on MES-SA (setting [6]) it was 14 µM; in test [1] (setting [7]) it was 20 µM; in the test on MCF7 (setting [8]) it was 36 µM; in test [3] (setting [9]) it was 20 µM. Besides, the result in test [2] was inactive.
On to `O=C1c2ccccc2C(=O)c2c(O)cc(O)cc21` [XANTHOPURPURIN], for which the 50% inhibitory concentration (IC50) is 29 µM in the test with DU-145 (setting [5]); 30 µM in the test with MES-SA (setting [6]); 21 µM in test [1] (setting [7]); 55 µM in the test with MCF7 (setting [8]); 23 µM in test [3] (setting [9]). The result in test [2] was inactive.
Take VITAMIN E: the result in test [2] was Active.
Take `CCOCc1c(O)cc2c(c1OC)C(=O)c1ccccc1C2=O`: the half-maximal inhibitory concentration (IC50) in the test with DU-145 (setting [5]) is 50 µM; in the test on MES-SA (mes-sa), “Not Active”; in test [1] (mes-sa/dx5) it was “Not Active”; in the test with MCF7 (setting [8]), 35 µM; in test [3] (nci-h460), “Not Active”. Further, in test [2], the outcome was inactive.
As for `CCOCc1c(OC)cc2c(c1OC)C(=O)c1ccccc1C2=O`, the concentration for half-maximal inhibition (IC50) result (with DU-145 (du-145); in the test on MES-SA (mes-sa); in test [1] (mes-sa/dx5); in the test with MCF7 (mcf7); in test [3] (nci-h460)) was “Not Active” in each case. In test [2], the outcome was inactive.
Turning to `COc1cc2c(c(OC)c1C)C(=O)c1ccccc1C2=O`, the concentration for half-maximal inhibition (IC50) result (in the test with DU-145 (du-145); in the test on MES-SA (mes-sa); in test [1] (mes-sa/dx5); in the test on MCF7 (mcf7); in test [3] (nci-h460)) was “Not Active” throughout. Further, the outcome in test [2] was inactive.
Regarding `COc1ccc(C)c2c1C(=O)c1ccccc1C2=O`, the IC50 in the test with DU-145 (setting [5]) is 48 µM; with MES-SA (setting [6]), 19 µM; in test [1] (mes-sa/dx5) it was “Not Active”; with MCF7 (setting [8]), 55 µM; in test [3] (setting [9]), 54 µM. Also, the outcome in test [2] was inactive.
As for `COc1c(C=O)c(O)c(Br)c2c1C(=O)c1ccccc1C2=O`, the IC50 was 34 µM in the test with DU-145 (setting [5]); “Not Active” in the test with MES-SA (mes-sa); “Not Active” in test [1] (mes-sa/dx5); 19 µM in the test on MCF7 (setting [8]); 32 µM in test [3] (setting [9]). Moreover, the outcome in test [2] was inactive.
As to `COc1c(C)c(OC(C)=O)cc2c1C(=O)c1ccccc1C2=O`, the IC50 was 27 µM in the test with DU-145 (setting [5]); “Not Active” in the test with MES-SA (mes-sa); “Not Active” in test [1] (mes-sa/dx5); 26 µM in the test with MCF7 (setting [8]); “Not Active” in test [3] (nci-h460). The result in test [2] was inactive.
For the compound `O=C1c2ccccc2C(=O)c2c(Br)cc(O)cc21`, the half-inhibitory concentration (IC50) was determined as 44 µM with DU-145 (setting [5]); 56 µM in the test on MES-SA (setting [6]); 29 µM in test [1] (setting [7]); 27 µM in the test on MCF7 (setting [8]); 43 µM in test [3] (setting [9]). The result in test [2] was inactive.
`COc1ccc(O)c2c1C(=O)c1ccccc1C2=O`: the concentration for half-maximal inhibition (IC50) is 74 µM in the test with DU-145 (setting [5]); “Not Active” with MES-SA (mes-sa); “Not Active” in test [1] (mes-sa/dx5); 79 µM with MCF7 (setting [8]); 82 µM in test [3] (setting [9]). For the same compound, the result in test [2] was inactive.
Take `COc1cc2c(c(OC)c1CBr)C(=O)c1ccccc1C2=O`: the IC50 was 4 µM with DU-145 (setting [5]); 2 µM in the test on MES-SA (setting [6]); 2 µM in test [1] (setting [7]); 8 µM in the test with MCF7 (setting [8]); 5 µM in test [3] (setting [9]). In addition, the result in test [2] was inactive.
Consider `Cc1cc(C(C)(C)C)c(O)c(C(C)(C)C)c1`, for which, in test [2], the result was Active.
Turning to `COc1c(CBr)c(OC(C)=O)cc2c1C(=O)c1ccccc1C2=O`, the IC50 is 5 µM in the test with DU-145 (setting [5]); “Not Active” in the test with MES-SA (mes-sa); “Not Active” in test [1] (mes-sa/dx5); 6 µM in the test with MCF7 (setting [8]); 26 µM in test [3] (setting [9]). Moreover, the outcome in test [2] was inactive.
Turning to `O=C1c2ccccc2C(=O)c2c1ccc(O)c2O`, the result in test [2] and in test [4] was Active.
Turning to `COc1cc2c(c(OC)c1C=O)C(=O)c1ccccc1C2=O`, the IC50 was 32 µM with DU-145 (setting [5]); 5 µM in the test with MES-SA (setting [6]); “Not Active” in test [1] (mes-sa/dx5); 55 µM with MCF7 (setting [8]); 65 µM in test [3] (setting [9]). Moreover, in test [2], the outcome was inactive.
For `COc1cc2c(c(O)c1CBr)C(=O)c1ccccc1C2=O`, the concentration for half-maximal inhibition (IC50) in the test with DU-145 (setting [5]) is 26 µM; in the test on MES-SA (setting [6]), 4 µM; in test [1] (mes-sa/dx5) it was “Not Active”; with MCF7 (setting [8]), 34 µM; in test [3] (setting [9]), 30 µM. For the same compound, the result in test [2] was inactive.
Consider `Cc1c(O)cc2c(c1O)C(=O)c1ccccc1C2=O` [Rubiadin], for which the half-maximal inhibitory concentration (IC50) in the test on DU-145 (setting [5]) came out at 32 µM; in the test with MES-SA (setting [6]), 38 µM; in test [1] (setting [7]), 35 µM; in the test on MCF7 (setting [8]), 56 µM; in test [3] (setting [9]), 42 µM. Moreover, the result in test [2] was inactive.
Take `O=C1c2ccccc2C(=O)c2cc(O)ccc21` [2-HYDROXYANTHRAQUINONE]: the IC50 with DU-145 (setting [5]) was 72 µM; in the test on MES-SA (mes-sa), “Not Active”; in test [1] (mes-sa/dx5), “Not Active”; in the test on MCF7 (setting [8]) it was 69 µM; in test [3] (setting [9]), 66 µM. In test [2], the result was inactive.
`COc1ccc(OC)c2c1C(=O)c1ccccc1C2=O` [1,4-DIMETHOXYANTHRAQUINONE]: the IC50 with DU-145 (setting [5]) was 69 µM; in the test with MES-SA (mes-sa), “Not Active”; in test [1] (mes-sa/dx5), “Not Active”; with MCF7 (setting [8]), 70 µM; in test [3] (setting [9]), 71 µM. Also, in test [2], the outcome was inactive.
Regarding `O=C1c2ccccc2C(=O)c2cc(Br)c(O)cc21`, the IC50 entry (in the test with DU-145 (du-145); in the test with MES-SA (mes-sa); in test [1] (mes-sa/dx5); in the test with MCF7 (mcf7); in test [3] (nci-h460)) was “Not Active” each time. The outcome in test [2] was inactive.

The values above are taken from ChEMBL document CHEMBL3046480, “Synthesis of damnacanthal, a naturally occurring 9,10-anthraquinone and its analogues, and its biological evaluation against five cancer cell lines” (Med Chem Res, 2013).
